Data published in ChEMBL document CHEMBL1629580, “Sec- and Tat-dependent translocation of beta-lactamases across the Escherichia coli inner membrane” (2009).
Converted amounts (≈) assume the structure as drawn.

Assays:
Escherichia coli [1] = assay: Antimicrobial activity against mreB-deficient Escherichia coli YLS-3 harboring empty plasmid by liquid microdilution method; assay type: functional
Escherichia coli [2] = assay: Antimicrobial activity against Escherichia coli CU164A expressing beta-lactamase TEM-1 by liquid microdilution method; assay type: functional
Escherichia coli [3] = assay: Antimicrobial activity against translocase tatC-deficient Escherichia coli B1LK0A harboring empty plasmid by liquid microdilution method; assay type: functional
Escherichia coli [4] = assay: Antimicrobial activity against translocase tatC-deficient Escherichia coli B1LK0A harboring beta-lactamase L1 by liquid microdilution method; assay type: functional
Escherichia coli [5] = assay: Antimicrobial activity against Escherichia coli CU164A harboring beta-lactamase L2 by liquid microdilution method
Escherichia coli [6] = assay: Antimicrobial activity against Escherichia coli MC4100A harboring beta-lactamase L1 by liquid microdilution method; assay type: functional
Escherichia coli [7] = assay: Antimicrobial activity against Escherichia coli MC4100A harboring beta-lactamase CTX-M-14 by liquid microdilution method; assay type: functional
Escherichia coli [8] = assay: Antimicrobial activity against mreB-deficient Escherichia coli YLS-3 expressing beta-lactamase TEM-1 by liquid microdilution method; assay type: functional
Escherichia coli [9] = assay: Antimicrobial activity against mreB-deficient Escherichia coli YLS-3 harboring beta-lactamase L2 by liquid microdilution method; assay type: functional
Escherichia coli [10] = assay: Antimicrobial activity against Escherichia coli MC4100A expressing beta-lactamase TEM-1 by liquid microdilution method; assay type: functional
Escherichia coli [11] = assay: Antimicrobial activity against Escherichia coli CU164A harboring beta-lactamase CTX-M-14 by liquid microdilution method; assay type: functional
Escherichia coli [12] = assay: Antimicrobial activity against translocase tatC-deficient Escherichia coli B1LK0A harboring beta-lactamase CTX-M-14 by liquid microdilution method; assay type: functional
Escherichia coli [13] = assay: Antimicrobial activity against Escherichia coli MC4100A harboring empty plasmid by liquid microdilution method; assay type: functional
Escherichia coli [14] = assay: Antimicrobial activity against translocase tatC-deficient Escherichia coli B1LK0A harboring beta-lactamase L2 by liquid microdilution method; assay type: functional
Escherichia coli [15] = assay: Antimicrobial activity against mreB-deficient Escherichia coli YLS-3 harboring beta-lactamase CTX-M-14 by liquid microdilution method; assay type: functional
Escherichia coli [16] = assay: Antimicrobial activity against translocase tatC-deficient Escherichia coli B1LK0A expressing beta-lactamase TEM-1 by liquid microdilution method; assay type: functional
Escherichia coli [17] = assay: Antimicrobial activity against mreB-deficient Escherichia coli YLS-3 harboring beta-lactamase L1 by liquid microdilution method
Escherichia coli [18] = assay: Antimicrobial activity against Escherichia coli CU164A harboring beta-lactamase AmpC by liquid microdilution method
Escherichia coli [19] = assay: Antimicrobial activity against Escherichia coli MC4100A harboring beta-lactamase AmpC by liquid microdilution method; assay type: functional
Escherichia coli [20] = assay: Antimicrobial activity against Escherichia coli CU164A harboring empty plasmid by liquid microdilution method; assay type: functional
Escherichia coli [21] = assay: Antimicrobial activity against translocase tatC-deficient Escherichia coli B1LK0A harboring beta-lactamase AmpC by liquid microdilution method
Escherichia coli [22] = assay: Antimicrobial activity against mreB-deficient Escherichia coli YLS-3 harboring beta-lactamase AmpC by liquid microdilution method
Escherichia coli [23] = assay: Antimicrobial activity against Escherichia coli CU164A harboring beta-lactamase L1 by liquid microdilution method; assay type: functional
Escherichia coli [24] = assay: Antimicrobial activity against Escherichia coli MC4100A harboring beta-lactamase L2 by liquid microdilution method

SMILES | MIC (Escherichia coli [1]) | MIC (Escherichia coli [2]) | MIC (Escherichia coli [4]) | MIC (Escherichia coli [5]) | MIC (Escherichia coli [6]) | MIC (Escherichia coli [7]) | MIC (Escherichia coli [8]) | MIC (Escherichia coli [9]) | MIC (Escherichia coli [10]) | MIC (Escherichia coli [11]) | MIC (Escherichia coli [12]) | MIC (Escherichia coli [15]) | MIC (Escherichia coli [16]) | MIC (Escherichia coli [17]) | MIC (Escherichia coli [18]) | MIC (Escherichia coli [19]) | MIC (Escherichia coli [21]) | MIC (Escherichia coli [22]) | MIC (Escherichia coli [23]) | MIC (Escherichia coli [24]) | also measured
CC1(C)S[C@@H]2[C@H](NC(=O)[C@H](N)c3ccc(O)cc3)C(=O)N2[C@H]1C(=O)O [AMOXICILLIN] | 4 µg/mL (≈ 10.9 µM) | 1020 µg/mL (≈ 2800 µM) | 512 µg/mL (≈ 1400 µM) | 512 µg/mL (≈ 1400 µM) | 1020 µg/mL (≈ 2800 µM) | 2050 µg/mL (≈ 5600 µM) | 256 µg/mL (≈ 701 µM) | 256 µg/mL (≈ 701 µM) | 1020 µg/mL (≈ 2800 µM) | 2050 µg/mL (≈ 5600 µM) | 2050 µg/mL (≈ 5600 µM) | 1020 µg/mL (≈ 2800 µM) | 512 µg/mL (≈ 1400 µM) | 512 µg/mL (≈ 1400 µM) | 512 µg/mL (≈ 1400 µM) | 512 µg/mL (≈ 1400 µM) | 512 µg/mL (≈ 1400 µM) | 128 µg/mL (≈ 350 µM) | 512 µg/mL (≈ 1400 µM) | 64 µg/mL (≈ 175 µM) | MIC (Escherichia coli [3]): 4 µg/mL (≈ 10.9 µM); MIC (Escherichia coli [13]): 4 µg/mL (≈ 10.9 µM); MIC (Escherichia coli [14]): 4 µg/mL (≈ 10.9 µM); MIC (Escherichia coli [20]): 4 µg/mL (≈ 10.9 µM)
CO/N=C(\C(=O)N[C@@H]1C(=O)N2C(C(=O)O)=C(COC(C)=O)CS[C@H]12)c1csc(N)n1 [CEFOTAXIME] |  | ≤ 0.06 µg/mL | 1 µg/mL (≈ 2.2 µM) | 2 µg/mL (≈ 4.39 µM) | 1 µg/mL (≈ 2.2 µM) | 16 µg/mL (≈ 35.1 µM) | ≤ 0.06 µg/mL | 0.06 µg/mL (≈ 0.132 µM) | ≤ 0.06 µg/mL | 16 µg/mL (≈ 35.1 µM) | 16 µg/mL (≈ 35.1 µM) | 4 µg/mL (≈ 8.78 µM) | ≤ 0.06 µg/mL | 0.06 µg/mL (≈ 0.132 µM) | 0.5 µg/mL (≈ 1.1 µM) | 0.5 µg/mL (≈ 1.1 µM) | 0.5 µg/mL (≈ 1.1 µM) | 0.12 µg/mL (≈ 0.263 µM) | 1 µg/mL (≈ 2.2 µM) | 2 µg/mL (≈ 4.39 µM) | 
CC(C)(O/N=C(\C(=O)N[C@@H]1C(=O)N2C(C(=O)[O-])=C(C[n+]3ccccc3)CS[C@H]12)c1csc(N)n1)C(=O)O [CEFTAZIDIME] | ≤ 0.06 µg/mL | ≤ 0.06 µg/mL | 8 µg/mL (≈ 14.6 µM) | 4 µg/mL (≈ 7.32 µM) | 8 µg/mL (≈ 14.6 µM) | 1 µg/mL (≈ 1.83 µM) | ≤ 0.06 µg/mL | 0.06 µg/mL (≈ 0.11 µM) | ≤ 0.06 µg/mL | 1 µg/mL (≈ 1.83 µM) | 1 µg/mL (≈ 1.83 µM) | 0.5 µg/mL (≈ 0.915 µM) | ≤ 0.06 µg/mL | 0.06 µg/mL (≈ 0.11 µM) | 0.25 µg/mL (≈ 0.457 µM) | 0.25 µg/mL (≈ 0.457 µM) | 0.25 µg/mL (≈ 0.457 µM) | 0.06 µg/mL (≈ 0.11 µM) | 8 µg/mL (≈ 14.6 µM) | 4 µg/mL (≈ 7.32 µM) | MIC (Escherichia coli [3]): ≤ 0.06 µg/mL; MIC (Escherichia coli [13]): ≤ 0.06 µg/mL; MIC (Escherichia coli [14]): ≤ 0.06 µg/mL; MIC (Escherichia coli [20]): ≤ 0.06 µg/mL
CC(=O)OCC1=C(C(=O)O)N2C(=O)[C@@H](NC(=O)Cc3cccs3)[C@H]2SC1 [CEPHALOTHIN] | ≤ 2 µg/mL | 32 µg/mL (≈ 80.7 µM) | 128 µg/mL (≈ 323 µM) | 256 µg/mL (≈ 646 µM) | 128 µg/mL (≈ 323 µM) | 1020 µg/mL (≈ 2580 µM) | 8 µg/mL (≈ 20.2 µM) | 64 µg/mL (≈ 161 µM) | 32 µg/mL (≈ 80.7 µM) | 1020 µg/mL (≈ 2580 µM) | 512 µg/mL (≈ 1290 µM) | 128 µg/mL (≈ 323 µM) | 16 µg/mL (≈ 40.4 µM) | 32 µg/mL (≈ 80.7 µM) | 512 µg/mL (≈ 1290 µM) | 1020 µg/mL (≈ 2580 µM) | 256 µg/mL (≈ 646 µM) | 256 µg/mL (≈ 646 µM) | 128 µg/mL (≈ 323 µM) | 256 µg/mL (≈ 646 µM) | MIC (Escherichia coli [3]): ≤ 2 µg/mL; MIC (Escherichia coli [13]): 4 µg/mL (≈ 10.1 µM); MIC (Escherichia coli [14]): ≤ 2 µg/mL; MIC (Escherichia coli [20]): 4 µg/mL (≈ 10.1 µM)
CCN1CCN(C(=O)N[C@@H](C(=O)N[C@@H]2C(=O)N3[C@@H]2SC(C)(C)[C@@H]3C(=O)O)c2ccccc2)C(=O)C1=O [PIPERACILLIN] | ≤ 2 µg/mL | 256 µg/mL (≈ 495 µM) | 32 µg/mL (≈ 61.8 µM) | 128 µg/mL (≈ 247 µM) | 64 µg/mL (≈ 124 µM) | 512 µg/mL (≈ 989 µM) | 32 µg/mL (≈ 61.8 µM) | 32 µg/mL (≈ 61.8 µM) | 512 µg/mL (≈ 989 µM) | 512 µg/mL (≈ 989 µM) | 512 µg/mL (≈ 989 µM) | 128 µg/mL (≈ 247 µM) | 128 µg/mL (≈ 247 µM) | 32 µg/mL (≈ 61.8 µM) | 32 µg/mL (≈ 61.8 µM) | 32 µg/mL (≈ 61.8 µM) | 32 µg/mL (≈ 61.8 µM) | 16 µg/mL (≈ 30.9 µM) | 32 µg/mL (≈ 61.8 µM) | 128 µg/mL (≈ 247 µM) | MIC (Escherichia coli [3]): ≤ 2 µg/mL; MIC (Escherichia coli [13]): 2 µg/mL (≈ 3.86 µM); MIC (Escherichia coli [14]): ≤ 2 µg/mL; MIC (Escherichia coli [20]): 2 µg/mL (≈ 3.86 µM)
